As a reminder, the IC50 is the concentration needed to halve the response being measured.

SMILES strings stand for the structures.

Common to all, as to type: biochemical
Assay [1] deals with Pim-2 (Homo sapiens (Human), UniProt Q9P1W9). The assay can be described thus: Pim-2 kinase assay. The following applies: 1 mM ATP; read-out: PIM2 IC50. An outline of the steps: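 TR-FRET assay with 1 nM enzyme, 0.05 μM fluorescein-CREBtide and 1 mM ATP in Tris pH 7.5 buffer with MgCl2, DTT, BSA and Tween-20, run 2 h at 25° C. Stopped with EDTA and Tb-labelled anti-CREB pSer133 antibody, then read after 30 min at room temperature.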

Assay [2] concerns the target Pim-3 (Homo sapiens (Human), UniProt Q86V86). The assay can be described thus: Pim-3 kinase assay. The following applies: 1 mM ATP; read-out: PIM3 IC50. An outline of the steps: (§1)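 Biotin-BAD peptide (0.05 μM) phosphorylated with 1 mM ATP by 2.5 pM Pim-1 or 1.25 pM Pim-3 in Tris pH 7.5/MgCl2/DTT buffer, 1 h at 25° C. EDTA stop; phospho-BAD (Ser112) antibody with streptavidin donor and Protein-A acceptor beads, 1 h dark at room temperature before AlphaScreen-type bead read.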

Assay [3] concerns the target Pim-1 (Homo sapiens (Human), UniProt P11309). The assay can be described thus: Pim-1 kinase assay. The following applies: 1 mM ATP; read-out: PIM1 IC50. Summed up: as §1

Sequence of Pim-2 (Q9P1W9 whole entry): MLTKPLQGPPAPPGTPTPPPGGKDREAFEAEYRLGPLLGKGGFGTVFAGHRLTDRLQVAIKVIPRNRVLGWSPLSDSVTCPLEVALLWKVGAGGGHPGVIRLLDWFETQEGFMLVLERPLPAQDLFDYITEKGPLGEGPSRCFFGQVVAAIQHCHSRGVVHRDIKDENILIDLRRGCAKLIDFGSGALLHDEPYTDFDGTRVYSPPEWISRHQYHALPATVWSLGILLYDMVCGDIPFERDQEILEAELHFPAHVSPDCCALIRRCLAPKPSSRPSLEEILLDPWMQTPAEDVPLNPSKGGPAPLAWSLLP
Sequence of Pim-1 (P11309 whole entry): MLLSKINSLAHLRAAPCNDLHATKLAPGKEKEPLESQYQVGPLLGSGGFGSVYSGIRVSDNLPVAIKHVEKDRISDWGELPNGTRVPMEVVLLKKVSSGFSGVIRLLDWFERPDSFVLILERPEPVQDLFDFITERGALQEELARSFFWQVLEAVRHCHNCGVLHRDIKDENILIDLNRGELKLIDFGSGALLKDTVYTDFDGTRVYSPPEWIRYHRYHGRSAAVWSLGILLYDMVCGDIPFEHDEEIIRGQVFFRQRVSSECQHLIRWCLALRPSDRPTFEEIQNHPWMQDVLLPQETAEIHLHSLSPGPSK

With `C[C@@H]1C[C@H](N)C[C@H](c2ccncc2NC(=O)c2ccc(F)c3cc(N4CC5(CCC5)C4)cnc23)C1` [Example 107, N-(4-((1R,3S,5S)-3-Amino-5-methylcyclohexyl)pyridin-3-yl)-5-fluoro-3-(2-azaspiro[3.3]heptan-2-yl)quinoline-8-carboxamide], the IC50 was ≤ 100 nM in assay [1], ≤ 10 nM in assay [2] and ≤ 10 nM in assay [3].

Regarding `C[C@@H]1C[C@H](N)C[C@H](c2ccncc2NC(=O)c2ccc(F)c3cc(N4CCN(C)C(=O)[C@@H]4C)cnc23)C1` [Example 112, N-(4-((1R,3S,5S)-3-Amino-5-methylcyclohexyl)pyridin-3-yl)-3-((5)-2,4-dimethyl-3-oxopiperazin-1-yl)-5-fluoroquinoline-8-carboxamide], the IC50 in assay [1] was ≤ 100 nM; in assay [2], ≤ 10 nM; in assay [3] it was ≤ 10 nM.

For `C[C@@H]1C[C@H](N)C[C@H](c2ccncc2NC(=O)c2ccc(F)c3cc(N(C)c4ccccc4)cnc23)C1` [Example 83, N-(4-((1R,3S,5S)-3-Amino-5-methylcyclohexyl)pyridin-3-yl)-5-fluoro-3-(methyl(phenyl)amino)quinoline-8-carboxamide], the IC50 is ≤ 100 nM in assay [1], ≤ 10 nM in assay [2] and ≤ 10 nM in assay [3].

As for `C[C@@H]1C[C@H](N)C[C@H](c2ccncc2NC(=O)c2ccc(F)c3cc(N4CCCCCC4)cnc23)C1` [Example 76, N-(4-((1R,3S,5S)-3-Amino-5-methylcyclohexyl)pyridin-3-yl)-3-(azepan-1-yl)-5-fluoroquinoline-8-carboxamide], the results for the half-inhibitory concentration (IC50) in assay [1], in assay [2] and in assay [3] were ≤ 100 nM, ≤ 10 nM and ≤ 10 nM, respectively.

For `CO[C@@H]1CCN(c2cnc3c(C(=O)Nc4cnccc4[C@@H]4C[C@H](C)C[C@H](N)C4)ccc(F)c3c2)C[C@H]1F` [Example 162, N-(4-((1R,3S,5S)-3-Amino-5-methylcyclohexyl)pyridin-3-yl)-5-fluoro-3-((3R,4R)-3-fluoro-4-methoxypiperidin-1-yl)quinoline-8-carboxamide], the IC50 in assay [1] was ≤ 100 nM; in assay [2], ≤ 10 nM; in assay [3], ≤ 10 nM.

In the case of `COc1ccncc1N(C)c1cnc2c(C(=O)Nc3cnccc3[C@@H]3C[C@H](C)C[C@H](N)C3)ccc(F)c2c1` [Example 150, N-(4-((1R,3S,5S)-3-Amino-5-methylcyclohexyl)pyridin-3-yl)-5-fluoro-3-((4-methoxypyridin-3-yl)(methyl)amino)quinoline-8-carboxamide], the results for the IC50 in assay [1], in assay [2] and in assay [3] were ≤ 100 nM, ≤ 10 nM and ≤ 10 nM, respectively.

For the molecule `COc1ccc(N(C)c2cnc3c(C(=O)Nc4cnccc4[C@@H]4C[C@H](C)C[C@H](N)C4)ccc(F)c3c2)c(C)n1` [Example 144, N-(4-((1R,3S,5S)-3-Amino-5-methylcyclohexyl)pyridin-3-yl)-5-fluoro-3-((6-methoxy-2-methylpyridin-3-yl)(methyl)amino)quinoline-8-carboxamide], the IC50 is ≤ 100 nM in assay [1], ≤ 10 nM in assay [2] and ≤ 10 nM in assay [3].

As to `C[C@@H]1C[C@H](N)C[C@H](c2ccncc2NC(=O)c2ccc(F)c3cc(N4CC5(CCOCC5)C4)cnc23)C1` [Example 121, N-(4-((1R,3S,5S)-3-Amino-5-methylcyclohexyl)pyridin-3-yl)-5-fluoro-3-(7-oxa-2-azaspiro[3.5]nonan-2-yl)quinoline-8-carboxamide], the results for the IC50 in assay [1], in assay [2] and in assay [3] were ≤ 100 nM, ≤ 10 nM and ≤ 10 nM, respectively.

As for `C[C@@H]1C[C@H](N)C[C@H](c2ccncc2NC(=O)c2cccc3cc(N4CCC[C@H]4C)cnc23)C1` [Example 68, N-(4-((1R,3S,5S)-3-Amino-5-methylcyclohexyl)pyridin-3-yl)-3-((R)-2-methylpyrrolidin-1-yl)quinoline-8-carboxamide], the IC50 in assay [1] is ≤ 100 nM; in assay [2], ≤ 10 nM; in assay [3], ≤ 10 nM.

In the case of `C[C@@H]1C[C@H](N)C[C@H](c2ccncc2NC(=O)c2ccc(F)c3cc(N4C[C@@H](O)C[C@@H]4C)cnc23)C1` [Example 165, N-(4-((1R,3S,5S)-3-Amino-5-methylcyclohexyl)pyridin-3-yl)-5-fluoro-3-((2S,4S)-4-hydroxy-2-methylpyrrolidin-1-yl)quinoline-8-carboxamide], the results for the IC50 in assay [1], in assay [2] and in assay [3] were ≤ 100 nM, ≤ 10 nM and ≤ 10 nM, respectively.

As for `COC(=O)N1C[C@H]2C[C@@H]1CN2c1cnc2c(C(=O)Nc3cnccc3[C@@H]3C[C@H](C)C[C@H](N)C3)ccc(F)c2c1` [Example 90, (1R,4R)-Methyl 5-(8-(4-((1R,3S,5S)-3-amino-5-methylcyclohexyl)pyridin-3-ylcarbamoyl)-5-fluoroquinolin-3-yl)-2,5-diazabicyclo[2.2.1]heptane-2-carboxylate], the IC50 was ≤ 100 nM in assay [1], ≤ 10 nM in assay [2] and ≤ 10 nM in assay [3].

In the case of `C[C@@H]1C[C@H](N)C[C@H](c2ccncc2NC(=O)c2ccc(F)c3cc(N(C)c4cnccc4C(F)(F)F)cnc23)C1` [Example 143, N-(4-((1R,3S,5S)-3-Amino-5-methylcyclohexyl)pyridin-3-yl)-5-fluoro-3-(methyl(4-(trifluoromethyl)pyridin-3-yl)amino)quinoline-8-carboxamide], the IC50 in assay [1] is ≤ 100 nM; in assay [2] it was ≤ 10 nM; in assay [3], ≤ 10 nM.

As for `C[C@@H]1C[C@H](N)C[C@H](c2ccncc2NC(=O)c2ccc(F)c3cc(N(C)CC(F)(F)F)cnc23)C1` [Example 21, N-{4-[(1R,3S,5S)-3-Amino-5-methylcyclohexyl]pyridin-3-yl}-5-fluoro-3-[methyl(2,2,2-trifluoroethyl)amino]quinoline-8-carboxamide], the concentration for half-maximal inhibition (IC50) in assay [1] is ≤ 100 nM; in assay [2], ≤ 10 nM; in assay [3] it was ≤ 10 nM.

Regarding `C[C@@H]1C[C@H](N)C[C@H](c2ccncc2NC(=O)c2ccc(F)c3cc(N4CCC(F)(F)CC4)cnc23)C1` [Example 40, N-(4-((1R,3S,5S)-3-Amino-5-methylcyclohexyl)pyridin-3-yl)-3-(4,4-difluoropiperidin-1-yl)-5-fluoroquinoline-8-carboxamide], the 50% inhibitory concentration (IC50) was 100 to 1000 nM in assay [1], ≤ 10 nM in assay [2] and ≤ 10 nM in assay [3].

As to `CO[C@H]1C[C@H](C)N(c2cnc3c(C(=O)Nc4cnccc4[C@@H]4C[C@H](C)C[C@H](N)C4)ccc(F)c3c2)C1` [Example 157, N-(4-((1R,3S,5S)-3-Amino-5-methylcyclohexyl)pyridin-3-yl)-5-fluoro-3-((2S,4S)-4-methoxy-2-methylpyrrolidin-1-yl)quinoline-8-carboxamide], the IC50 in assay [1] was ≤ 100 nM; in assay [2], ≤ 10 nM; in assay [3] it was ≤ 10 nM.

As to `COC1CCCN(c2cnc3c(C(=O)Nc4cnccc4[C@@H]4C[C@H](C)C[C@H](N)C4)ccc(F)c3c2)CC1` (stereo partly drawn) [Example 101, N-(4-((1R,3S,5S)-3-Amino-5-methylcyclohexyl)pyridin-3-yl)-5-fluoro-3-(4-methoxyazepan-1-yl)quinoline-8-carboxamide], the IC50 is ≤ 100 nM in assay [1], ≤ 10 nM in assay [2] and ≤ 10 nM in assay [3].

For `COC(=O)N1CCN(c2cnc3c(C(=O)Nc4cnccc4[C@@H]4C[C@H](C)C[C@H](N)C4)ccc(F)c3c2)[C@H](C)C1` [Example 89, (R)-Methyl 4-(8-(4-((1R,3S,5S)-3-amino-5-methylcyclohexyl)pyridin-3-ylcarbamoyl)-5-fluoroquinolin-3-yl)-3-methylpiperazine-1-carboxylate], the results for the IC50 in assay [1], in assay [2] and in assay [3] were ≤ 100 nM, ≤ 10 nM and ≤ 10 nM, respectively.

Consider `Cc1nn(C)cc1-c1cnc2c(C(=O)Nc3cnccc3[C@@H]3C[C@H](C)C[C@H](N)C3)ccc(F)c2c1` [Example 63, N-(4-((1R,3S,5S)-3-Amino-5-methylcyclohexyl)pyridin-3-yl)-3-(1,3-dimethyl-1H-pyrazol-4-yl)-5-fluoroquinoline-8-carboxamide], for which the IC50 in assay [1] was 100 to 1000 nM; in assay [2], ≤ 10 nM; in assay [3], ≤ 10 nM.

As for `C[C@@H]1C[C@H](N)C[C@H](c2ccncc2NC(=O)c2ccc(F)c3cc(N4CCC[C@@H](C)C4)cnc23)C1` [Example 105, N-(4-((1R,3S,5S)-3-Amino-5-methylcyclohexyl)pyridin-3-yl)-5-fluoro-3-((R)-3-methylpiperidin-1-yl)quinoline-8-carboxamide], the IC50 was ≤ 100 nM in assay [1], ≤ 10 nM in assay [2] and ≤ 10 nM in assay [3].

`C[C@@H]1C[C@H](N)C[C@H](c2ccncc2NC(=O)c2ccc(F)c3cc(N4CCOC[C@@H]4C)cnc23)C1` [Example 33, N-(4-((1R,3S,5S)-3-Amino-5-methylcyclohexyl)pyridin-3-yl)-5-fluoro-3-((S)-3-methylmorpholino)quinoline-8-carboxamide]: the 50% inhibitory concentration (IC50) in assay [1] is ≤ 100 nM; in assay [2] it was ≤ 10 nM; in assay [3], ≤ 10 nM.

For `C[C@@H]1C[C@H](N)C[C@H](c2ccncc2NC(=O)c2ccc(F)c3cc(Nc4ccccc4C#N)cnc23)C1` [Example 129, N-(4-((1R,3S,5S)-3-Amino-5-methylcyclohexyl)pyridin-3-yl)-3-(2-cyanophenylamino)-5-fluoroquinoline-8-carboxamide], the IC50 in assay [1] was 100 to 1000 nM; in assay [2] it was ≤ 10 nM; in assay [3], ≤ 10 nM.

These data come from US9920032B2, “Heterocyclic compounds useful as pim kinase inhibitors” (Incyte Corporation, priority 2015, dated 2018).
